Measurements as given in patent US20030065176A1, “Factor xa inhibitors with aryl-amidines and derivatives, and prodrugs thereof” (priority 2000, published 2003).

Experiments:
Type in all cases: biochemical
trypsin [1] = assay: Trypsin inhibition assay (selectivity against trypsin); details: A3: bicyclic scaffold; ratio of Ki values
Experimental: (§1) The FXa inhibition selectivity of the compound according to the present invention to trypsin is measured as follows. The inhibition effect of the compound of formula 1 to trypsin is measured in Ki value by practicing the same method as the above measuring method of FXa inhibiting activity, and the rate of trypsin/FXa is obtained. At this time, the experimental method of thrombin is the same as that of FXa, except that N-benzoyl-Val-Gly-Arg-p-nitroanilide hydrochloride is used as the substrate.
(§2) Inhibition activity of a compound according to the present invention was measured by performing the experiment as explained above concerning FXa.
(§3) 20 uM solution of N-benzoyl-Val-Gly-Arg-p-nitroanilide hydrochloride was used as a substrate. An inhibitor solution with various concentrations in the range of 0 to 120 uM was used. Trypsin was dissolved in 0.1N HCl, and supplemented with the above tris buffer solution to be 45 ug/mL. Thereafter, 40 uL of the trypsin solution was used. The remaining procedure and the used amounts of materials (for example, […] of total volume of the reaction solution) and the like were the same as those of the experiment for thrombin. Also, Km was decided in the same method as used in Ki calculation.

trypsin [2] = target: T1, trypsin (UniProt P00760); assay: as above; details: A3: bicyclic scaffold; read-out: Inhibition ability against trypsin Ki
T1 construct: other: A1: cyclopropyl scaffold; other: A2: pyrrole scaffold; other: A3: bicyclic scaffold; other: A4: cyanophenylalanine scaffold
T1 sequence (P00760 1-246): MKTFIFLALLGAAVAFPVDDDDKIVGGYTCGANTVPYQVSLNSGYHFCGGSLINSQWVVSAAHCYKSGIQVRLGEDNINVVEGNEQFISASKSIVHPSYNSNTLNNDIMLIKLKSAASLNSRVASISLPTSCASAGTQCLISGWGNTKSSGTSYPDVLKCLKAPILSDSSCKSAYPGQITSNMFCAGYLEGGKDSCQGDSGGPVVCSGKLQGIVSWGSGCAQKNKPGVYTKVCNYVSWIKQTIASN
Experimental: as §1, §2, §3

human thrombin = human thrombin (Homo sapiens, UniProt P00734); assay: Thrombin inhibition assay (selectivity against thrombin); details: A3: bicyclic scaffold; ratio of Ki values
Experimental: The FXa inhibiting selectivity of the compound according to the present invention to thrombin is measured as follows. The inhibition effect of the compound of formula 1 to thrombin is measured in Ki value by practicing the same method as the above measuring method of FXa inhibiting activity, and the rate of thrombin/FXa is obtained. At this time, the experimental method of thrombin is the same as that of FXa, except that Chromozyme TH (Tosyl-Gly-Pro-Arg-nitroanilide acetate) is used as the substrate.
Inhibiting ability of a compound according to the present invention against thrombin activity was measured as follows.
In 1.5 mL cuvette, 0.1M tris buffer solution (pH 7.8) comprising 150 mM NaCl, and 0.1% PEG 8000 (molecular weight 8000) was placed by 1160 uL. Chromozyme X was dissolved in dimethylsulfoxide (DMSO) to be 0.1 mM, and diluted with the above buffer solution to be 0.1 mM to prepare the substrate solution. 225 uL of 0.1 mM substrate solution as prepared above was added to cuvette. The compound of the present invention was dissolved in DMSO to be 10 mM, and diluted with the above buffer solution to be 0.1 mM, 0.01 mM and 0.001 mM, respectively, to prepare an inhibitor solution. The inhibitor solution was taken in an amount from 0 to 20 uL, and supplemented with tris buffer solution up to 20 uL of total volume of the solution to add to the cuvette.
15 uL of human thrombin, which was dissolved in the above tris buffer solution to be 0.1 mg/mL, was added to the cuvette having the reaction solution at room temperature to begin enzyme hydrolysis. The amount of para-nitroanilide produced for 2 minutes after adding enzyme was monitored about variation of absorbency at 381 nm to depict continuous spectrum of reaction time to absorbency. The above experiment was repeated for various concentrations of inhibitor to obtain consecutive spectrum.
The initial velocity Vi was calculated from gradient within 30 sec of the reaction time in each spectrum. A graph was depicted for a reciprocal of the initial velocity to inhibitor concentration (1/Vi). A linear equation corresponding to points on the graph was obtained. Thereafter, Ki may be calculated by using enzyme reaction equation from x intercept.

In the case of `C[n+]1cccc(-c2ccc(NC(=O)C3=C(c4cccc(C(=N)N)c4)CCC3)cc2)c1.O=C([O-])C(F)(F)F` [Compound No. A3-26, 4-(N-methylpyridinium-3-yl)-phenyl 2-(3-aminoiminomethylphenyl)-cyclopenetene-1-carboxamide trifluoroacetic acid salt], the “Selectivity (trypsin/FXa)” value (trypsin [1]) is reported as 10, the Ki (trypsin [2]) is reported as 210 nM and the “Selectivity (thrombin/FXa)” value (human thrombin) is reported as 670.
